Converted amounts (≈) assume the structure as drawn.
Key:
[1] = test system: Candida parapsilosis ATCC 22019 (strain J); test: MIC, broth microdilution (CLSI M27-A3), yeast strain J; format: cell-based; settings: Lodderomyces parapsilosis, ATCC22019; MIC-0, strain J, 35 °C 48 h
Description: (§1) The final concentrations of compounds 3, 4, 7a, 7b, 9, and 16, as well as that of TOB tested in this study ranged from 0.24–62.5 μg/mL. CAS was used as a positive control and the final concentrations tested for CAS ranged from 0.03–31.3 μg/mL. Briefly, overnight yeast cultures were grown in yeast peptone dextrose (YPD) broth and the cell density was adjusted to an OD600 of 0.12 (~1 × 10^6 CFU/mL) by using a spectrophotometer. Yeast cell suspensions were further diluted to achieve 1–5 × 10^3 CFU/mL in RPMI 1640 medium, and 100 μL of these yeast cells was added to 96-well microtiter plates containing RPMI 1640 medium and titrated compounds. Each test was performed in triplicate. The plates were incubated at 35 °C for 48 h.

[2] = test system: C. albicans ATCC 10231 (strain A); test: MIC, broth microdilution (CLSI M27-A3), yeast strain A; format: cell-based, Candida albicans; settings: Candida albicans, ATCC10231; MIC-0, strain A, 35 °C 48 h
Description: as §1

[3] = test system: Candida parapsilosis clinical isolate CP2; test: MIC, broth microdilution (CLSI M27-A3), CP2; format: cell-based; settings: Lodderomyces parapsilosis; MIC-0, CP2, 35 °C 48 h
Description: as §1

[4] = test system: Aspergillus terreus ATCC MYA-3633 (strain M); test: MIC, filamentous fungi (CLSI M38-A2), strain M; format: cell-based; settings: MIC-0, strain M, 35 °C 72 h
Description: (§2) The spores were harvested from sporulating cultures growing on potato dextrose agar (PDA) by filtration through sterile glass wool and enumerated by using a hemocytometer (Hausser Scientific, Horsham, PA, USA) to obtain the desired inoculum size. Two-fold serial dilutions of compounds 3, 4, 7a, 7b, 9, and 16, as well as CAS and TOB were made in sterile 96-well microtiter plates to obtain the final concentration range of 0.24–62.5 μg/mL for TOB and TOB derivatives as well as 0.03–31.3 μg/mL for CAS in the RPMI 1640 medium. The spore suspensions were added to the wells to afford a final concentration of 5 × 10^5 spores/mL. The plates were incubated at 35 °C for 72 h. […] Each test was performed in triplicate.

[5] = test system: C. albicans ATCC MYA-2876(S) (strain C); test: MIC, broth microdilution (CLSI M27-A3), yeast strain C; format: cell-based; settings: Candida albicans; MIC-0, strain C, 35 °C 48 h
Description: as §1

[6] = test system: C. albicans ATCC MYA-2310(S) (strain E); test: MIC, broth microdilution (CLSI M27-A3), yeast strain E; format: cell-based; settings: Candida albicans; MIC-0, strain E, 35 °C 48 h
Description: as §1

[7] = test system: Cryptococcus neoformans clinical isolate CN1; test: MIC, broth microdilution (CLSI M27-A3), CN1; format: cell-based; settings: MIC-0, CN1, 35 °C 48 h
Description: as §1

[8] = test system: C. albicans ATCC 64124 (strain B); test: MIC, broth microdilution (CLSI M27-A3), yeast strain B; format: cell-based; settings: Candida albicans, ATCC64124; MIC-0, strain B, 35 °C 48 h
Description: as §1

[9] = test system: Cryptococcus neoformans clinical isolate CN3; test: MIC, broth microdilution (CLSI M27-A3), CN3; format: cell-based; settings: MIC-0, CN3, 35 °C 48 h
Description: as §1

[10] = test system: Aspergillus flavus ATCC MYA-3631 (strain K); test: MIC, filamentous fungi (CLSI M38-A2), strain K; format: cell-based; settings: Aspergillus flavus, 72 h, MIC-0, strain K, 35 °C 72 h; read-out: MIC
Description: as §2

[11] = test system: C. albicans ATCC MYA-1237(R) (strain F); test: MIC, broth microdilution (CLSI M27-A3), yeast strain F; format: cell-based; settings: Candida albicans; MIC-0, strain F, 35 °C 48 h
Description: as §1

[12] = test system: Aspergillus nidulans ATCC 38163 (strain L); test: MIC, filamentous fungi (CLSI M38-A2), strain L; format: cell-based; settings: Aspergillus nidulans, ATCC38163, 72 h, MIC-0, strain L, 35 °C 72 h; read-out: MIC
Description: as §2

[13] = test system: Cryptococcus neoformans clinical isolate CN2; test: MIC, broth microdilution (CLSI M27-A3), CN2; format: cell-based; settings: MIC-0, CN2, 35 °C 48 h
Description: as §1

[14] = test system: Candida krusei ATCC 6258 (strain I); test: MIC, broth microdilution (CLSI M27-A3), yeast strain I; format: cell-based; settings: Pichia kudriavzevii, ATCC6258; MIC-0, strain I, 35 °C 48 h
Description: as §1

[15] = test system: Candida glabrata clinical isolate CG3; test: MIC, broth microdilution (CLSI M27-A3), CG3; format: cell-based; settings: Nakaseomyces glabratus; MIC-0, CG3, 35 °C 48 h
Description: as §1

[16] = test system: Candida parapsilosis clinical isolate CP1; test: MIC, broth microdilution (CLSI M27-A3), CP1; format: cell-based; settings: Lodderomyces parapsilosis; MIC-0, CP1, 35 °C 48 h
Description: as §1

[17] = test system: C. albicans ATCC MYA-1003(R) (strain G); test: MIC, broth microdilution (CLSI M27-A3), yeast strain G; format: cell-based; settings: Candida albicans; MIC-0, strain G, 35 °C 48 h
Description: as §1

[18] = test system: C. albicans ATCC 90819(R) (strain D); test: MIC, broth microdilution (CLSI M27-A3), yeast strain D; format: cell-based; settings: Candida albicans, ATCC90819; MIC-0, strain D, 35 °C 48 h
Description: as §1

[19] = test system: Candida glabrata clinical isolate CG1; test: MIC, broth microdilution (CLSI M27-A3), CG1; format: cell-based; settings: Nakaseomyces glabratus; MIC-0, CG1, 35 °C 48 h
Description: as §1

[20] = test system: C. neoformans clinical isolates CN1-3; test: MIC across C. neoformans clinical isolates CN1-3; format: cell-based, Cryptococcus neoformans
Description: as §1

[21] = test system: Candida parapsilosis clinical isolate CP3; test: MIC, broth microdilution (CLSI M27-A3), CP3; format: cell-based; settings: MIC-0, CP3, 35 °C 48 h
Description: as §1

[22] = test system: Candida glabrata ATCC 2001 (strain H); test: MIC, broth microdilution (CLSI M27-A3), yeast strain H; format: cell-based; settings: Nakaseomyces glabratus, ATCC2001; MIC-0, strain H, 35 °C 48 h
Description: as §1

[23] = test system: Candida glabrata clinical isolate CG2; test: MIC, broth microdilution (CLSI M27-A3), CG2; format: cell-based; settings: Nakaseomyces glabratus; MIC-0, CG2, 35 °C 48 h
Description: as §1

[24] = test system: seven C. albicans strains (A-G); test: MIC across the panel of seven C. albicans strains; format: cell-based; settings: Candida albicans; across all seven C. albicans strains tested
Description: as §1

[25] = test system: nine non-albicans Candida strains (H-J, CG1-3, CP1-3); test: MIC across the panel of nine non-albicans Candida strains; format: cell-based, Candida glabrata, Candida krusei, Candida parapsilosis
Description: as §1

Row | SMILES | MIC [1] | MIC [2] | MIC [3] | MIC [4] | MIC [5] | MIC [6] | MIC [7] | MIC [8] | MIC [9] | MIC [10] | MIC [11] | MIC [12] | MIC [13] | MIC [14] | MIC [15] | MIC [16] | MIC [17] | MIC [18] | MIC [19] | MIC [21] | also measured
1 | CC[C@H](C)C[C@H](C)CCCCCCCCC(=O)N[C@H]1C[C@@H](O)[C@@H](NCCN)NC(=O)[C@@H]2[C@@H](O)CCN2C(=O)[C@H]([C@H](O)CCN)NC(=O)[C@H]([C@H](O)[C@@H](O)c2ccc(O)cc2)NC(=O)[C@@H]2C[C@@H](O)CN2C(=O)[C@H]([C@@H](C)O)NC1=O [CAS, caspofungin, reference compound] | 1.95 µg/mL (≈ 1.78 µM) | 0.975 µg/mL (≈ 0.892 µM) | 0.48 µg/mL (≈ 0.439 µM) | > 31.3 µg/mL | 0.06 µg/mL (≈ 0.0549 µM) | 0.12 µg/mL (≈ 0.11 µM) | 15.6 µg/mL (≈ 14.3 µM) | 0.24 µg/mL (≈ 0.22 µM) | 15.6 µg/mL (≈ 14.3 µM) | > 31.3 µg/mL | 0.24 µg/mL (≈ 0.22 µM) | > 31.3 µg/mL | 31.3 µg/mL (≈ 28.6 µM) | 0.48 µg/mL (≈ 0.439 µM) | 0.975 µg/mL (≈ 0.892 µM) | 0.48 µg/mL (≈ 0.439 µM) | 0.48 µg/mL (≈ 0.439 µM) | 0.12 µg/mL (≈ 0.11 µM) | 1.95 µg/mL (≈ 1.78 µM) | 0.48 µg/mL (≈ 0.439 µM) | MIC values [20]: low to no activity; MIC [22]: 0.06 µg/mL (≈ 0.0549 µM); MIC [23]: 0.24 µg/mL (≈ 0.22 µM)
2 | CCCCCCCCCCCCOCC1OC(OC2C(N)CC(N)C(OC3OC(CN)C(O)CC3N)C2O)C(O)C(N)C1O [Compound 16, O-3-Amino-3-deoxy-6-O-dodecyl-α-D-glucopyranosyl-(1→6)-O-[2,6-diamino-2,3,6-trideoxy-α-D-ribo-hexopyranosyl-(1→4)]-2-deoxy-D-streptamine] | 31.3 µg/mL (≈ 49.2 µM) | 62.5 µg/mL (≈ 98.3 µM) | 62.5 µg/mL (≈ 98.3 µM) | > 62.5 µg/mL | > 62.5 µg/mL | 62.5 µg/mL (≈ 98.3 µM) | 1.95 µg/mL (≈ 3.07 µM) | 62.5 µg/mL (≈ 98.3 µM) | 3.9 µg/mL (≈ 6.13 µM) | > 62.5 µg/mL | 62.5 µg/mL (≈ 98.3 µM) | 3.9 µg/mL (≈ 6.13 µM) | 0.975 µg/mL (≈ 1.53 µM) | 31.3 µg/mL (≈ 49.2 µM) | 62.5 µg/mL (≈ 98.3 µM) | 62.5 µg/mL (≈ 98.3 µM) | 62.5 µg/mL (≈ 98.3 µM) | 62.5 µg/mL (≈ 98.3 µM) | > 62.5 µg/mL | 62.5 µg/mL (≈ 98.3 µM) | MIC [24]: ≥ 62.5 µg/mL; MIC [25]: 31.3 to 62.5 µg/mL (≈ 49.2 to 98.3 µM); MIC [22]: 62.5 µg/mL (≈ 98.3 µM); MIC [23]: 62.5 µg/mL (≈ 98.3 µM)

— PMC5971061, “Differential Effects of Linkers on the Activity of Amphiphilic Tobramycin Antifungals” (Molecules : A Journal of Synthetic Chemistry and Natural …, 2018)
